Measurements reported in ChEMBL document CHEMBL4052759, “Discovery of DS79182026: A potent orally active hepcidin production inhibitor” (Bioorg Med Chem Lett, 2017).

How the values were obtained:
[1] = biological target: Cyclin-dependent kinase 2 (Homo sapiens) (UniProt P24941); test: Inhibition of CDK2 (unknown origin) at 0.078 uM relative to control
[2] = biological target: Protein kinase C beta type (Homo sapiens) (UniProt P05771); test: Inhibition of PKC-beta2 (unknown origin) at 0.078 uM relative to control
[3] = biological target: Serine/threonine-protein kinase pim-2 (Homo sapiens) (UniProt Q9P1W9); test: Inhibition of PIM2 (unknown origin) at 0.078 uM relative to control
[4] = biological target: Hepatocyte growth factor receptor (Homo sapiens) (UniProt P08581); test: Inhibition of MET (unknown origin) at 0.078 uM relative to control
[5] = biological target: Mitogen-activated protein kinase kinase kinase 7 (Homo sapiens) (UniProt O43318); test: Inhibition of c-TAK1 (unknown origin) at 0.078 uM relative to control
[6] = biological target: MAP kinase-activated protein kinase 2 (Homo sapiens) (UniProt P49137); test: Inhibition of MAPKAPK2 (unknown origin) at 0.078 uM relative to control
[7] = biological target: Casein kinase I isoform delta (Homo sapiens) (UniProt P48730); test: Inhibition of CK1-delta (unknown origin) at 0.078 uM relative to control
[8] = biological target: Protein kinase C iota type (Homo sapiens) (UniProt P41743); test: Inhibition of PKC-iota (unknown origin) at 0.49 uM relative to control
[9] = biological target: Tyrosine-protein kinase ABL1 (Homo sapiens) (UniProt P00519); test: Inhibition of ABL (unknown origin) at 0.49 uM relative to control
[10] = biological target: Serine/threonine-protein kinase MARK2 (Homo sapiens) (UniProt Q7KZI7); test: Inhibition of MARK2 (unknown origin) at 0.49 uM relative to control
[11] = biological target: Proto-oncogene tyrosine-protein kinase receptor Ret (Homo sapiens) (UniProt P07949); test: Inhibition of RET (unknown origin) at 0.49 uM relative to control
[12] = biological target: Serine/threonine-protein kinase D3 (Homo sapiens) (UniProt O94806); test: Inhibition of PKD3 (unknown origin) at 0.49 uM relative to control
[13] = biological target: AMP-activated protein kinase, AMPK (Homo sapiens) (UniProt P54646+O43741+P54619+Q9UGJ0+Q9Y478+Q13131+Q9UGI9); test: Inhibition of AMPK (unknown origin) at 0.49 uM relative to control
[14] = biological target: Dual specificity tyrosine-phosphorylation-regulated kinase 3 (Homo sapiens) (UniProt O43781); test: Inhibition of DYRK3 (unknown origin) at 0.49 uM relative to control
[15] = test system: Leucine-rich repeat serine/threonine-protein kinase 2 (Homo sapiens), Q5S007 [G2019S]; test: Inhibition of LRRK2 G2019S mutant (unknown origin) at 0.49 uM relative to control
[16] = test system: Tyrosine-protein kinase ABL1 (Homo sapiens), P00519 [G250E]; test: Inhibition of ABL1 G250E mutant (unknown origin) at 0.49 uM relative to control
[17] = biological target: Tyrosine-protein kinase JAK2 (Homo sapiens) (UniProt O60674); test: Inhibition of JAK2 (unknown origin) at 0.49 uM relative to control
[18] = biological target: Mitogen-activated protein kinase 13 (Homo sapiens) (UniProt O15264); test: Inhibition of p38-delta (unknown origin) at 0.49 uM relative to control
[19] = test system: Tyrosine-protein kinase ABL1 (Homo sapiens), P00519 [E255K]; test: Inhibition of ABL1 E255K mutant (unknown origin) at 0.49 uM relative to control
[20] = biological target: Serine/threonine-protein kinase D1 (Homo sapiens) (UniProt Q15139); test: Inhibition of PKD1 (unknown origin) at 0.45 uM relative to control
[21] = biological target: Tyrosine-protein kinase Fgr (Homo sapiens) (UniProt P09769); test: Inhibition of FGR (unknown origin) at 0.45 uM relative to control
[22] = biological target: Tyrosine-protein kinase ABL1 (Homo sapiens) (UniProt P00519); test: Inhibition of ABL (unknown origin) at 0.45 uM relative to control
[23] = biological target: Serine/threonine-protein kinase Nek2 (Homo sapiens) (UniProt P51955); test: Inhibition of NEK2 (unknown origin) at 0.45 uM relative to control
[24] = biological target: Fibroblast growth factor receptor 2 (Homo sapiens) (UniProt P21802); test: Inhibition of FGFR2 (unknown origin) at 0.45 uM relative to control
[25] = biological target: Dual specificity tyrosine-phosphorylation-regulated kinase 2 (Homo sapiens) (UniProt Q92630); test: Inhibition of DYRK2 (unknown origin) at 0.45 uM relative to control
[26] = biological target: Mitogen-activated protein kinase 13 (Homo sapiens) (UniProt O15264); test: Inhibition of p38-delta (unknown origin) at 0.45 uM relative to control
[27] = biological target: T1, Calcium/calmodulin-dependent protein kinase type IV (Homo sapiens) (UniProt Q16566); test: Inhibition of CAMK4 (unknown origin) at 0.45 uM relative to control
T1 sequence (whole entry): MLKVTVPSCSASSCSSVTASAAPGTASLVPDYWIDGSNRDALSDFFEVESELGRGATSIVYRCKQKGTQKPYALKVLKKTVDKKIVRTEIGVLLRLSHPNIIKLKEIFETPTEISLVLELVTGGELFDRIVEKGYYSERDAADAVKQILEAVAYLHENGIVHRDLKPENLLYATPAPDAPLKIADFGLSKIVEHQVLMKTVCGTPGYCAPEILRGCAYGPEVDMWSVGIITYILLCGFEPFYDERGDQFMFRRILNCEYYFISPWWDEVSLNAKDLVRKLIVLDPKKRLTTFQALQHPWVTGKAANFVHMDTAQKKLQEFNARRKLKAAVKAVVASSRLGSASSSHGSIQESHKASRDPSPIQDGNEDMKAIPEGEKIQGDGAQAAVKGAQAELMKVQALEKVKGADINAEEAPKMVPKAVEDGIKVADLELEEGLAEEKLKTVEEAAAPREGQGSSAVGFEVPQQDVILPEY

[28] = biological target: RAF proto-oncogene serine/threonine-protein kinase (Homo sapiens) (UniProt P04049); test: Inhibition of c-Raf (unknown origin) at 0.45 uM relative to control
[29] = biological target: Ephrin type-A receptor 3 (Homo sapiens) (UniProt P29320); test: Inhibition of EPHA3 (unknown origin) at 0.45 uM relative to control
[30] = biological target: Calcium/calmodulin-dependent protein kinase type 1D (Homo sapiens) (UniProt Q8IU85); test: Inhibition of CamK1d (unknown origin) at 0.45 uM relative to control
[31] = biological target: Serine/threonine-protein kinase D3 (Homo sapiens) (UniProt O94806); test: Inhibition of PKD3 (unknown origin) at 0.45 uM relative to control
[32] = biological target: Protein kinase C alpha (Homo sapiens) (UniProt P17252); test: Inhibition of PKC-alpha (unknown origin) at 0.45 uM relative to control
[33] = biological target: Death-associated protein kinase 1 (Homo sapiens) (UniProt P53355); test: Inhibition of DAPK1 (unknown origin) at 0.45 uM relative to control

## COC(=O)Nc1noc2cc(-c3c(-c4ccccn4)n[nH]c3C)ccc12
[1]
  inhibition: -4.3%
[2]
  inhibition: 8.7%
[3]
  inhibition: 1.7%
[4]
  inhibition: 1%
[5]
  inhibition: -3.3%
[6]
  inhibition: 4.7%
[7]
  inhibition: 10.7%

## Cc1[nH]nc(C2CC2)c1-c1ccc2c(NC(=O)C3CC3)noc2c1
[8]
  inhibition: 1%
[9]
  inhibition: 38.3%
[10]
  inhibition: -1%
[11]
  inhibition: 15%
[12]
  inhibition: -4.3%
[13]
  inhibition: 2%
[14]
  inhibition: 1%
[15]
  inhibition: 5.3%
[16]
  inhibition: 23.7%
[17]
  inhibition: -1.7%
[18]
  inhibition: 4.3%
[19]
  inhibition: 21.3%

## Cc1n[nH]c(C)c1-c1ccc2c(NC(=O)c3ccc(N4CCN(C)CC4)cc3)n[nH]c2c1
[20]
  inhibition: 1.3%
[21]
  inhibition: 13%
[22]
  inhibition: 82%
[23]
  inhibition: 3.3%
[24]
  inhibition: 21.7%
[25]
  inhibition: 8%
[26]
  inhibition: 4.3%
[27]
  inhibition: 0%
[28]
  inhibition: 7%
[29]
  inhibition: 5%
[30]
  inhibition: 0.7%
[31]
  inhibition: 0.3%
[32]
  inhibition: 13.7%
[33]
  inhibition: -1.3%
